Measured values from patent US11273172B2, “Synergistic combination of oligonucleotides and chemotherapeutic for treating cancer” (THE BOARD OF TRUSTEES OF THE UNIVERSITY OF ILLINOIS, priority 2017, dated 2022).

Experiments:
Experiment in all cases: MTT cell death assay, chemotherapeutic with and without MADD siRNA knockdown
Assay type in all cases: cell-based
[1] = test system: AGS gastric adenocarcinoma cells; settings: siRNA 10 nM
Protocol: (§1) Cells are cultured and maintained at 37° C. in a humidified atmosphere containing 5% CO2 as described above. […] After 12-18 hours (Day 1), cells are transfected with Scramble or MADD siRNA at 10 nM concentration. The sequences of siRNAs (double-stranded) used are:
(§2) On Day 4, when cells are properly adhered and retained their shape in 96-well plates, drugs are added. All drugs are diluted in complete media on the same day prior to the addition to the cells. In untreated cells, media is replaced with complete media. Two hundred μl volume of media (with or without drugs) is used for the drug treatment assay. Plates are incubated 24 hours, 48 hours and 72 hours at 37° C. in humidified CO2 incubator.
(§3) An MTT assay is performed to determine relative survival after drug treatment as described above. MTT (3-[4,5-Dimethylthiazol-2-yl]-2,5-diphenyltetrazolium bromide; Thiazolyl blue) is purchased from Sigma Aldrich (Cat number: M5655). […] Ten μl of MTT solution is added per well of 96-well plate. Plates are incubated for 2 hours at 37° C. in the humidified CO2 incubator. After 2 hours, media is aspirated using vacuum inside the biosafety hood. Purple colored crystals formed in viable cells are dissolved by adding 100 μl of Dimethyl sulfoxide (Thermo Fisher Scientific; Cat number D128-500) Plates are kept on shaker for 10 minutes for compete dissolution of crystals and absorbance is recorded at 595 nm using Bio-Rad iMark microplate reader. Data is analyzed in MICROSOFT EXCEL® software. Relative survival is calculated with respect to absorbance of control (untreated cells) to determine the effect of transfection as well as combination treatment.
(§4) Each data set takes into account any spontaneous cell death which is observed upon transfection with Scramble siRNA; the amount of spontaneous cell death from Scramble siRNA transfection (baseline) is subtracted from the amount of cell death observed in each siRNA transfection reaction to yield a Net Percent (Net %) cell death after accounting for Scrambled siRNA-induced cell death.
(§5) Cells are cultured and maintained at 37° C. in a humidified atmosphere containing 5% CO2 as described above. […] After 12-18 hours (Day 1), cells are transfected with Scramble or MADD siRNA at 10 nM concentration. The sequences of siRNAs (double stranded) used are:
as §3, with “D128-500).” for “D128-500)”
as §2, with “24 h,” for “24 hours,”, “48 h” for “48 hours”

[2] = test system: PLC/PRF/5 hepatic cancer cells; settings: siRNA 10 nM
Protocol: as §1, §2, §3, §4, §5
as §3, with “D128-500).” for “D128-500)”
as §2, with “24 h,” for “24 hours,”, “48 h” for “48 hours”

[3] = test system: 8505C thyroid cancer cells; settings: 8505C; Cisplatin 2.5 μM; siRNA 10 nM; 48 hours post Cisplatin treatment
Protocol: as §5
as §2, with “24 h,” for “24 hours,”, “48 h” for “48 hours”
as §3, §4, §2

[4] = test system: HTH7 thyroid cancer cells; settings: siRNA 10 nM
Protocol: as §5, §2, §3, §4

H2227 lung cancer cells = settings: siRNA 10 nM
Protocol: (§6) Cells are cultured and maintained at 37° C. in a humidified atmosphere containing 5% CO2 as described above. On Day 0, Cells are seeded in […] tissue culture dishes (Corning; Cat Number: 353003) to attain 60-70% confluence. In parallel, cells are also seeded in one 96-well plate (Corning; Cat number: 353072) for analysis of survival before reseeding. After 12-18 hours (Day 1), cells are transfected with Scramble or MADD siRNA at 10 nM concentration. The sequences of siRNAs (double-stranded) used are:
as §2
(§7) An MTT assay is performed to determine relative survival after drug treatment as described above. MTT (3-[4,5-Dimethylthiazol-2-yl]-2,5-diphenyltetrazolium bromide; Thiazolyl blue) is purchased from Sigma Aldrich (Cat number: M5655). MTT is dissolved in sterile DPBS at the concentration of 5 mg/ml and filtered through […] syringe filter (Corning; Cat number: 431220). Ten μl of MTT solution is added per well of 96-well plate. Plates are incubated for 2 hours at 37° C. in the humidified CO2 incubator. After 2 hours, media is aspirated using vacuum inside the biosafety hood. Purple colored crystals formed in viable cells are dissolved by adding 100 μl of Dimethyl sulfoxide (Thermo Fisher Scientific; Cat number D128-500) Plates are kept on shaker for 10 minutes for compete dissolution of crystals and absorbance is recorded at 595 nm using Bio-Rad iMark microplate reader. Data is analyzed in MICROSOFT EXCEL® software. Relative survival is calculated with respect to absorbance of control (untreated cells) to determine the effect of transfection as well as combination treatment.
as §4
as §6, with “(double stranded)” for “(double-stranded)”
as §2, with “added. Doxorubicin was added at a working concentration of 5.0 nM, 9.375 nM, 0.075 μM, 0.25 μM, 0.5 μM, and 0.8 μM.” for “added.”
(§8) An MTT assay is performed to determine relative survival after drug treatment as described above. MTT (3-[4,5-Dimethylthiazol-2-yl]-2,5-diphenyltetrazolium bromide; Thiazolyl blue) is purchased from Sigma Aldrich (Cat number: M5655). MTT is dissolved in sterile DPBS at the concentration of 5 mg/ml and filtered through […] syringe filter (Corning; Cat number: 431220). Ten μl of MTT solution is added per well of 96-well plate. Plates are incubated for 2 hours at 37° C. in the humidified CO2 incubator. […]

[5] = test system: K562 chronic myelogenous leukemia cells; settings: siRNA 10 nM
Protocol: as §6, §2, §7, §4
as §6, with “(double stranded)” for “(double-stranded)”
as §2, with “added. Doxorubicin was added at a working concentration of 5.0 nM, 9.375 nM, 0.075 μM, 0.25 μM, 0.5 μM, and 0.8 μM.” for “added.”
as §8

[6] = test system: SU.86.86 pancreatic cancer cells; settings: Doxorubicin 5 nM, siRNA 10 nM, 24 hours post Doxorubicin treatment
Protocol: as §6, §2, §7, §4
as §6, with “(double stranded)” for “(double-stranded)”
as §2, with “added. Doxorubicin was added at a working concentration of 5.0 nM, 9.375 nM, 0.075 μM, 0.25 μM, 0.5 μM, and 0.8 μM.” for “added.”
as §8

[7] = test system: JIMT1 breast cancer cells; settings: Doxorubicin 0.075 μM, siRNA 10 nM, 24 hours post Doxorubicin treatment
Protocol: as §6, with “(double stranded)” for “(double-stranded)”
as §2, with “added. Doxorubicin was added at a working concentration of 5.0 nM, 9.375 nM, 0.075 μM, 0.25 μM, 0.5 μM, and 0.8 μM.” for “added.”
as §7, with “D128-500).” for “D128-500)”
as §4

[8] = test system: N87 gastric carcinoma cells; settings: Doxorubicin 0.8 μM, siRNA 10 nM, 72 hours post Doxorubicin treatment
Protocol: as §6, with “(double stranded)” for “(double-stranded)”
as §2, with “added. Doxorubicin was added at a working concentration of 5.0 nM, 9.375 nM, 0.075 μM, 0.25 μM, 0.5 μM, and 0.8 μM.” for “added.”
as §7, with “D128-500).” for “D128-500)”
as §4

H522 lung cancer cells = settings: Gemcitabine 8.2 nM, siRNA 10 nM, 48 hours post Gemcitabine treatment
Protocol: as §6, §2, §7, §4
as §6, with “(double stranded)” for “(double-stranded)”
as §7, with “D128-500).” for “D128-500)”, “Relative survival is calculated with respect to absorbance of control (untreated cells) to determine the effect of transfection as well as combination treatment.” left out

[9] = test system: OVCAR3 ovarian cancer cells; settings: siRNA 10 nM
Protocol: as §6, §2, §7, §4
as §6, with “(double stranded)” for “(double-stranded)”
as §7, with “D128-500).” for “D128-500)”, “Relative survival is calculated with respect to absorbance of control (untreated cells) to determine the effect of transfection as well as combination treatment.” left out

[10] = 5-flurouracil 25 μM, 72 hours post 5-flurouracil treatment
[11] = Cisplatin 1.875 μM, 24 hours post Cisplatin treatment
[12] = Cisplatin 1.25 μM, 72 hours post Cisplatin treatment
[13] = Cisplatin 5 μM, 24 hours post Cisplatin treatment
[14] = Doxorubicin 9.375 nM, 48 hours post Doxorubicin treatment
[15] = Doxorubicin 0.25 μM, 72 hours post Doxorubicin treatment
[16] = Doxorubicin 0.5 μM, 48 hours post Doxorubicin treatment
[17] = Gemcitabine 25 nM, 48 hours post Gemcitabine treatment
[18] = Gemcitabine 1 μM, 48 hours post Gemcitabine treatment
[19] = Gemcitabine 0.03125 μM, 24 hours post Gemcitabine treatment
[20] = Gemcitabine 0.1 μM, 48 hours post Gemcitabine treatment

SMILES: O=c1[nH]cc(F)c(=O)[nH]1 [5-flurouracil]
- Net % cell death after accounting for Scrambled siRNA [1, 10]: 22%
- Observed % Cell death [1, 10]: 22%

SMILES: N.N.[Cl][Pt][Cl] [Cisplatin]
- Net % cell death after accounting for Scrambled siRNA [2, 11]: 41%
- Observed % Cell death [2, 11]: 41%
- Net % cell death after accounting for Scrambled siRNA [3]: 19%
- Observed % Cell death [3]: 19%
- Net % cell death after accounting for Scrambled siRNA [4, 12]: 0%
- Observed % Cell death [4, 12]: 0%
- Net % cell death after accounting for Scrambled siRNA [4, 13]: 13%
- Observed % Cell death [4, 13]: 13%

SMILES: COc1cccc2c1C(=O)c1c(O)c3c(c(O)c1C2=O)C[C@@](O)(C(=O)CO)C[C@@H]3O[C@H]1C[C@H](N)[C@H](O)[C@H](C)O1 [Doxorubicin]
- Net % cell death after accounting for Scrambled siRNA (H2227 lung cancer cells; [14]): 3%
- Observed % Cell death (H2227 lung cancer cells; [14]): 3%
- Net % cell death after accounting for Scrambled siRNA [5, 15]: 11%
- Observed % Cell death [5, 15]: 11%
- Net % cell death after accounting for Scrambled siRNA [5, 16]: 0%
- Observed % Cell death [5, 16]: 0%
- Net % cell death after accounting for Scrambled siRNA [6]: 36%
- Observed % Cell death [6]: 36%
- Net % cell death after accounting for Scrambled siRNA [7]: 17%
- Observed % Cell death [7]: 17%
- Net % cell death after accounting for Scrambled siRNA [8]: 38%
- Observed % Cell death [8]: 38%

SMILES: Nc1ccn([C@@H]2O[C@H](CO)[C@@H](O)C2(F)F)c(=O)n1 [Gemcitabine]
- Net % cell death after accounting for Scrambled siRNA (H2227 lung cancer cells; [17]): 15%
- Observed % Cell death (H2227 lung cancer cells; [17]): 15%
- Net % cell death after accounting for Scrambled siRNA [1, 18]: 38%
- Observed % Cell death [1, 18]: 38%
- Net % cell death after accounting for Scrambled siRNA [2, 19]: 1%
- Observed % Cell death [2, 19]: 1%
- Net % cell death after accounting for Scrambled siRNA (H522 lung cancer cells): 4%
- Observed % Cell death (H522 lung cancer cells): 4%
- Observed % Cell death ([9]; Gemcitabine 0.0125 μM, 72 hours post Gemcitabine treatment): 19%
- Net % cell death after accounting for Scrambled siRNA [9, 20]: 28%
- Observed % Cell death [9, 20]: 28%
